For data set [1], the system named is HaCaT human immortal keratinocyte cell line. Kind of data set: MTT cytotoxicity assay, HaCaT. The format is cell-based. As to conditions: for IC50: Homo sapiens, HaCaT, MTT, 72 h; for cytotoxic effect on HaCaT cells: combination with LA40 and TRFi. As for the experimental part: (§1) The human cell lines SW480 (primary colon cancer), SW620 (lymph node metastatic from the same patient as SW480), and HaCaT (immortalized keratinocyte) were obtained from the American Type Culture Collection (ATCC, Rockville, USA). SW480 and SW620 cells were grown in MEM (minimal essential medium, ThermoSci, USA), and HaCaT in DMEM high glucose (Dulbecco’s Modified Eagle’s Medium, Biowest SAS, France) supplemented with 10% FBS (fetal bovine serum), HEPES (20 mM), and antibiotics (100 U/mL of penicillin and 100 μg/mL of streptomycin). The cells were maintained in a humidified incubator at 37 °C/5% CO2 until 80–90% confluence was reached.
(§2) Next, the cells were harvested by treatment with 0.25% trypsin-0.02% EDTA (Gibco Life Technologies, Carslabad, CA USA) and seeded in 96-well plates (1 × 10^4 cells per well) for MTT assay or in 6-well plates (4 × 10^4 cells per well) for Trypan blue exclusion method. […] The cells treated only with 20 µM LA were used as a control. All experimental settings were repeated with holo-transferrin (TRFi) at pharmacological concentration (50 µM). All cells were cultured for a period of 72 h.
(§3) The cytotoxic effects of tested compounds were assessed by MTT (3-(4,5-dimethylthiazol-2-yl)-2,5-diphenyltetrazolium bromide) assay. This assay is based on the metabolic reduction of soluble MTT into an insoluble colored formazan product by mitochondrial dehydrogenase activity of viable cells. After 72 h incubation in the presence of experimental compounds the cells were incubated at 37 °C with MTT solution (0.5 mg/mL) for 4h. Obtained purple formazan product was dissolved in DMSO with isopropanol (1:1) and the optical density was measured at 570 nm. Each experiment was performed in triplicate. The cytotoxicity of compounds was presented as a percent of MTT reduced in treated cells vs. control cells. The relative MTT level (%) was calculated according formula [A]/[B] × 100. [A] express the absorbance of the test sample whereas [B] the absorbance of the control sample (untreated cells. IC50 values were calculated using CompuSyn version 1.0.
For orientation: Tetrazolium assays rely on reduction of a dye to a coloured formazan, in cell work by metabolically active cells.

A short description of data set [2]: FITC Annexin V/PI flow cytometry apoptosis assay, HaCaT. The class given is cell-based, human. As to conditions: human, HaCaT cells; read-out: Q1 viable cells HaCaT. The protocol:
(§4) The cells were cultured and harvested under the conditions mentioned in Cell Culture and Treatment and seeded in 6-well plates (2 × 10^5 cells per well). […] The apoptotic effect of compounds was measured using the Annexin V:FITC assay kit (Sigma Aldrich) in accordance with the protocols provided. After 72 h treatment both floating and adherent cells were harvested. The floating cells were collected by centrifugation at 700× g for 5 min at 4 °C. Adherent cells were first trypsinized and then collected by centrifugation at 700× g for 5 min at 4 °C. Both fractions were resuspended in Annexin V binding buffer, pooled and incubated with FITC Annexin V and PI for 15 min at room temperature in the dark and analyzed by flow cytometry (Becton Dickinson). A total of 10,000 events were collected. Annexin V:FITC positive and PI negative cells were recognized as early apoptosis and Annexin V:FITC and PI positive cells as late apoptosis or necrosis.

For the next data set, the system named is HaCaT cells. Described as above. The class given is cell-based, human. As to conditions: with LA 40 and TRFi addition. As for the experimental part:
as §4

The subject of data set [3] is SW620 cells. Briefly: Trypan blue exclusion viability assay, SW620. The class given is cell-based, human. As to conditions: 8 µM with LA (40 µM), 72 h, TB assay. As for the experimental part: as §2
(§5) After a 72 h incubation with serial concentration of experimental compounds the cells were washed in PBS and harvested with trypsin. The viability was estimated by trypan blue exclusion assay using an automated cell counter (Countess Invitrogen). Experiments were performed in triplicate.

Data set [4] concerns SW480 human primary colon cancer cell line. Kind of data set: MTT cytotoxicity assay, SW480. As to conditions: 72 h, LA 20 or 40 µM, TRFi 50 µM where named in the label. The class given is cell-based. The protocol: as §1, §2, §3
Data set [5] has as its system SW620 cells. Kind of data set: FITC Annexin V/PI flow cytometry apoptosis assay, SW620. The class given is cell-based, human. The settings on record: for cells in late apoptosis SW620: with LA 40 and TRFi addition. The protocol: as §4
A general note: In flow cytometry, cells or beads pass a laser one at a time.

For data set [6], the system named is SW620 human metastatic colon cancer cell line. Briefly: MTT cytotoxicity assay, SW620. As to conditions: SW-620, 72 h, LA 20 or 40 µM, TRFi 50 µM where named in the label. The format is cell-based.
Protocol: The cytotoxic effects of tested compounds were assessed by MTT (3-(4,5-dimethylthiazol-2-yl)-2,5-diphenyltetrazolium bromide) assay. […] Obtained purple formazan product was dissolved in DMSO with isopropanol (1:1) and the optical density was measured at 570 nm. […] The relative MTT level (%) was calculated according formula [A]/[B] × 100. [A] express the absorbance of the test sample whereas [B] the absorbance of the control sample (untreated cells. IC50 values were calculated using CompuSyn version 1.0.
In data set [7] the test system is SW480 cells. Briefly: Trypan blue exclusion viability assay, SW480. The settings on record: 8 µM with LA (40 µM), 72 h, TB assay. The format is cell-based, human. As for the experimental part:
as §2, §5

The subject of data set [8] is SW480 cells. Kind of data set: FITC Annexin V/PI flow cytometry apoptosis assay, SW480. As to conditions: Homo sapiens, SW480, 72 h; read-out: Q1 viable cells SW480. The class given is cell-based. The protocol:
as §4

The test system of a further data set is HCT-116 cells. Also noted: method as in ref 37 (Lu et al. 2014). The settings on record: 40 μM, 72 h; ref 37 (Lu et al. 2014); cited from earlier work.
The test system of the next data set is SW948 cells. Details: method as in ref 36 (Lu et al. 2018). As to conditions: 48 h, ref 36 (Lu et al. 2018), cited from earlier work.
In data set [9] the test system is IL-6 secreted by SW620 cells. Kind of data set: Interleukin-6 ELISA in culture medium, SW620. The format is cell-based, human. As to conditions: added to ART-LA or DHA-LA (20 and 40 µM), 72 h; all studied settings except ART-LA20. As for the experimental part: (§6) The level of interleukin-6 (IL-6) secreted by SW480 and SW620 cells was measured by commercial human IL-6 ELISA kits (Diaclon SAS, Besancon Cedex, France). […] The untreated cells were used as the control. The IL-6 level in a cell culture supernatant was determined by an enzyme-linked immunosorbent assay, according to the manufacturer’s protocol. The experiment was repeated three times.
In general terms: An ELISA detects its analyte on a solid surface through an enzyme-linked reagent.

Data set [10] relates to IL-6 secreted by SW480 cells. Briefly: Interleukin-6 ELISA in culture medium, SW480. The format is cell-based, human. As to conditions: added to ART-LA or DHA-LA (20 and 40 µM), 72 h; all studied settings. The protocol: as §6
The mark [11] stands for this setting: with TRFi 50 µM, read-out: IC50 HaCaT at the presence of TRFi.
Where [12] appears, read: LA 20 or 40 µM, TRFi 50 µM where named in the label, read-out: IC50 HaCaT.

Where two headings read alike, the source gives them in different places.

For orientation: IC50 means the concentration that inhibits the measured activity by half.

As for `C[C@@H]1CC[C@H]2[C@@H](C)C(=O)O[C@@H]3O[C@@]4(C)CC[C@@H]1[C@]32OO4` [ART, Artemisinin], the IC50 in [1] (setting [11]) was found to be 187 µM; in [1] (setting [12]), 203 ± 16.2 µM; in data set [4], 39 ± 2.75 µM; in data set [6], 42.8 ± 4.6 µM. Further, the “cytotoxic effect on HaCaT cells” value in data set [1] is given as “no cytotoxic effect”. Further, the viability at 72 h, 2 µM in data set [2] worked out at 80.8%. Besides, the “late apoptosis HaCaT” value with HaCaT cells is listed as 25.68%. Also, in the data set on SW620 cells [3], the “viability SW620” value is recorded as 48 ± 2.8%. For the same molecule, in the data set with SW620 cells [5], the “cells in late apoptosis SW620” value is reported as 90%. Besides, the “viability SW480” value with SW480 cells [7] was 39 ± 2.8%.

On to `C[C@H]1[C@@H](O)O[C@@H]2O[C@@]3(C)CC[C@H]4[C@H](C)CC[C@@H]1[C@@]24OO3` [DHA, dihydroartemisinin], for which the IC50 was found to be 129 µM in data set [1] (setting [11]), 116 ± 5.5 µM in data set [1] (setting [12]), 11.4 ± 1.67 µM in [4] and 11.9 ± 2.3 µM in [6]. Moreover, the “cytotoxic effect on HaCaT cells” value in data set [1] is listed as “no cytotoxic effect”. In addition, the viability at 2 µM in the data set with SW480 cells [8] is 60.7%; in the data set on SW620 cells [5] (Homo sapiens, SW-620, 72 h, read-out: Q1 viable cells SW620), 72.4%. Also, the viability at 72 h, 2 µM in data set [2] was 73.7%. Further, the “late apoptosis HaCaT” value in the data set on HaCaT cells is given as 42.80%. Further, in the data set with SW620 cells [3], the “viability SW620” value came to 42 ± 2.1%. Further, the “viability HCT-116” value in the data set on HCT-116 cells is reported as 40%. For the same molecule, in the data set with SW620 cells [5], the “cells in late apoptosis SW620” value was determined as 90%. The “viability SW480” value in the data set with SW480 cells [7] was 35 ± 1.8%. Also, the “viability SW948” value is on record as 45% with SW948 cells (30 µM) and 24% in the data set with SW948 cells (50 µM).

Consider “TRFi: holotransferrin, iron-binding protein added to culture medium at 50 µM”, for which the “effect of TRFi addition on IL-6 concentration SW620” value in data set [9] is “increased IL-6 concentration”. Besides, the “effect of TRFi addition on IL-6 concentration SW480” value in [10] is “increased IL-6 concentration”.

Take `COc1cccc2c1C(=O)c1c(O)c3c(c(O)c1C2=O)C[C@@](O)(C(=O)CO)C[C@@H]3O[C@H]1C[C@H](N)[C@H](O)[C@H](C)O1` [DOX, doxorubicin]: the values for the IC50 in data set [1] (setting [12]) and in data set [4] were 0.29 ± 0.1 µM and 0.75 ± 0.1 µM, respectively.

Values taken from publication PMC8540140, “The Real Cytotoxic Effect of Artemisinins on Colon Cancer Cells in a Physiological Cell Culture Setting. How Composition of the Culture Medium Biases Experimental Findings” (Pharmaceuticals, 2021).
